Legend:
[1] = target: GST-tagged human ROCK2 catalytic domain 1-553 (Homo sapiens (Human), UniProt O75116); assay: Inhibition of Rho-associated protein kinase isoform 2 (LANCE Ultra ULight-CREBtide FRET kinase assay); format: biochemical; conditions: for IC50: 30 μM was the highest concentration analyzed; for Selectivity for ROCK2 over ROCK1 (IC50 ROCK1 / IC50 ROCK2): selectivity ROCK2 vs ROCK1
Method: (§1) Exemplary compounds were tested for ability to inhibit Rho-associated protein kinase isoform 1 (ROCK1) and Rho-associated protein kinase isoform 2 (ROCK2). Assay procedures and results are described below.
(§2) Protein constructs were purified from a baculovirus expression system. The peptide substrate was fluorescent LANCE® Ultra ULight-CREBtide: […] (PerkinElmer, # TRF0107-D). […] After a 90 minute incubation at room temperature on a shaker table, the kinase reaction was stopped by addition of 10 mM EDTA, and phosphorylation of the substrate was detected by adding 1 nM LANCE® Ultra Europium-anti-phospho-CREB (ser133) antibody (PerkinElmer, # TRF0200-D) and incubating for 60 minutes on a shaker at room temperature. The flurorescence resonance energy transfer (FRET) signals were read and analyzed on an Envision™ 2103 Multilabel Reader (Perkin Elmer).

[2] = target: GST-tagged human ROCK1 catalytic domain 1-477 (Homo sapiens (Human), UniProt Q13464); assay: Inhibition of Rho-associated protein kinase isoform 1 (LANCE Ultra ULight-CREBtide FRET kinase assay); format: biochemical; conditions: 30 μM was the highest concentration analyzed
Method: as §1, §2

Chain of GST-tagged human ROCK2 catalytic domain 1-553 (O75116 1-553): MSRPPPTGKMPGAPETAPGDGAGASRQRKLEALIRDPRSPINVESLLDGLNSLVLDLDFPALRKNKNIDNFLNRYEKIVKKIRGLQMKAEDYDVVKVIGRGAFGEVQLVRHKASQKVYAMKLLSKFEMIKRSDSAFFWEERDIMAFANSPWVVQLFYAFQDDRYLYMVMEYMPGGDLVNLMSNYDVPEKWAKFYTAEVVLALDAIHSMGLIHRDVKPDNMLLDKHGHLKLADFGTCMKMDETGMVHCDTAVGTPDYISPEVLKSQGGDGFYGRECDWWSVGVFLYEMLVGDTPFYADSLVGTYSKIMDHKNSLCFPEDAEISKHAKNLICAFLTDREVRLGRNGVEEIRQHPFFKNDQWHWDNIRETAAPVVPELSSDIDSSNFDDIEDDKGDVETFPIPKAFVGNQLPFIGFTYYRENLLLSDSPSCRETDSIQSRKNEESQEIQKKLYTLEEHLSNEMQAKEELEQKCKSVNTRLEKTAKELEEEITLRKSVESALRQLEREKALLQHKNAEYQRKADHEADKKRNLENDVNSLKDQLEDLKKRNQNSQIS
Chain of GST-tagged human ROCK1 catalytic domain 1-477 (Q13464 1-477): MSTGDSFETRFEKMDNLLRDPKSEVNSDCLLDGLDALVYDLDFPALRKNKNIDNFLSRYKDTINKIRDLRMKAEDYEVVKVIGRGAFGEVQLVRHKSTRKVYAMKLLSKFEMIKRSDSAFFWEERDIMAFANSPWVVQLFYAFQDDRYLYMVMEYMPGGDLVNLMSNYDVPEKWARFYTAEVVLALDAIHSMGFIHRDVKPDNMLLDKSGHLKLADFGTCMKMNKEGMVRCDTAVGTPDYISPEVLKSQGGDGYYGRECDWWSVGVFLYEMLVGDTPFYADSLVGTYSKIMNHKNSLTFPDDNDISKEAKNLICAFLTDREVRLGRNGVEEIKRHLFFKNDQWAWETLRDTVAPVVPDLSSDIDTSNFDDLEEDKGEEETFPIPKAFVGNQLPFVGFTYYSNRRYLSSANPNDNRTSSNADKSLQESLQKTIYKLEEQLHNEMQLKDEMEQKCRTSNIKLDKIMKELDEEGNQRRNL

Row | Compound | IC50 [1] [µM] | Selectivity for ROCK2 over ROCK1 (IC50 ROCK1 / IC50 ROCK2) [1] | IC50 [2] [µM]
1 | NCCn1cc(C(=O)Nc2cc(-c3nnc(Nc4ccc5[nH]ncc5c4)s3)ccn2)cn1.O=C(O)C(F)(F)F [Example 35BV] | < 1 | >50 | < 1
2 | Cn1cc(C(=O)Nc2cccc(-c3nnc(Nc4ccc5[nH]nc(F)c5c4)s3)c2)cn1 [Example 35BW] | > 30 | – | > 30
3 | Cn1cc(C(=O)Nc2cc(-c3nnc(Nc4ccc5[nH]ncc5c4)s3)ccn2)cn1.O=C(O)C(F)(F)F [Example 35BY] | – | >100 | > 30
4 | Cn1cc(C(=O)Nc2cc(F)c(F)c(-c3nnc(Nc4ccc5[nH]ncc5c4)s3)c2)cn1 [Example 35BZ] | < 1 | >100 | > 30
5 | O=C(Nc1cc(-c2nnc(Nc3ccc4[nH]ncc4c3Cl)s2)ccn1)c1ccc(F)cc1.O=C(O)C(F)(F)F [Example 35B] | < 1 | <5 | < 1
6 | Cn1cc(C(=O)Nc2cncc(-c3nnc(Nc4ccc5[nH]ncc5c4)s3)c2)cn1.O=C(O)C(F)(F)F [Example 35CA] | < 1 | <5 | < 1
7 | CC(=O)Nc1cc(F)c(F)c(-c2nnc(Nc3ccc4[nH]ncc4c3)s2)c1 [Example 35CB] | < 1 | >100 | > 30
8 | O=C(O)C(F)(F)F.O=C(O)CS(=O)(=O)Nc1cccc(-c2nnc(Nc3ccc4[nH]ncc4c3)s2)c1 [Example 35CD] | 1 to 15 | <5 | 1 to 15
9 | NCCn1cc(C(=O)Nc2cccc(-c3nnc(Nc4ccc5[nH]ncc5c4)s3)c2)cn1 [Example 35CE] | < 1 | >5 | < 1
10 | NCc1cncc(C(=O)Nc2cccc(-c3nnc(Nc4ccc5[nH]ncc5c4)s3)c2)c1.O=C(O)C(F)(F)F [Example 35CF] | < 1 | >5 | 1 to 15
11 | O=C(Nc1cccc(-c2nnc(Nc3ccc4[nH]ncc4c3)s2)c1)c1cnn(CC(O)CO)c1 (centres unmarked) [Example 35CG] | < 1 | >5 | < 1
12 | O=C(Nc1cccc(-c2nnc(Nc3ccc4[nH]ncc4c3)s2)c1)C(O)CO (centres unmarked) [Example 35CI] | < 1 | <5 | < 1
13 | O=C(O)c1cccc(-c2nnc(Nc3ccc4[nH]ncc4c3)s2)c1 [Example 35CL] | 1 to 15 | – | 15 to 30
14 | CCS(=O)(=O)Nc1cncc(-c2nnc(Nc3ccc4[nH]ncc4c3)s2)c1.O=C(O)C(F)(F)F [Example 35CN] | 1 to 15 | >5 | 1 to 15
15 | O=C(O)COc1cccc(-c2nnc(Nc3ccc4[nH]ncc4c3)s2)c1 [Example 35CO] | 1 to 15 | – | 1 to 15
16 | CC(C)NC(=O)COc1cccc(-c2nnc(Nc3ccc4[nH]ncc4c3)s2)c1 [Example 35CP] | < 1 | >5 | 15 to 30
17 | Nc1cc(-c2nnc(Nc3ccc4[nH]ncc4c3)s2)ccn1.O=C(O)C(F)(F)F [Example 35CQ] | < 1 | >100 | > 30
18 | Nc1cccc(-c2nnc(Nc3ccc4[nH]ncc4c3)s2)n1.O=C(O)C(F)(F)F [Example 35CR] | < 1 | >5 | > 30
19 | Nc1cncc(-c2nnc(Nc3ccc4[nH]ncc4c3)s2)c1.O=C(O)C(F)(F)F [Example 35CS] | 1 to 15 | <5 | < 1
20 | Nc1ccnc(-c2nnc(Nc3ccc4[nH]ncc4c3)s2)c1.O=C(O)C(F)(F)F [Example 35CT] | < 1 | >5 | > 30
21 | Nc1cccc(-c2nsc(Nc3ccc4[nH]ncc4c3)n2)c1 [Example 35CU] | 1 to 15 | >5 | > 30

From patent publication US10112935B2, “Indazolyl thiadiazolamines and related compounds for inhibition of Rho-associated protein kinase and the treatment of disease” (Lycera Corporation, priority 2015, dated 2018)
